Measurements reported in PubChem BioAssay AID2740 (NMMLSC, 2010).

Test system: S. cerevisiae RPL19A-GFP strain, flow cytometry fluorescence, 3 h
Experiment: TOR pathway RPL19A-GFP modulators, concentration series – cell-based, S. cerevisiae, flow cytometry, MLPCN hits, dose response (AID 2740)

Compared with `O=C(Nc1ccc(Cl)cc1)ON=C1CCCC1`, `COc1ccc(N/N=C(\C#N)C(N)=O)cc1` is 3.6-fold lower in EC50: 10.8 µM for the first, 2.96 µM for the second.

Going from `Cc1cccc(C)c1NC(=O)C(Cl)C(=O)c1ccccc1` (configuration not stated) to `CC(C)(C)C(=O)C(Cl)C(=O)Nc1ccccc1` (configuration not stated), the EC50 rises from 1.9 µM to 11.2 µM (5.9-fold).

First: O=C(C#Cc1ccccc1)c1cccc([N+](=O)[O-])c1
Second: O=C1C=CC(=O)N1c1cccc(-c2ccccc2)c1
The EC50 of the first is 2.8-fold higher: 7.47 µM for the first, 2.7 µM for the second. The second is the more potent here.

Compared with `C/C(=N\NC(=O)c1cccc(Br)c1)c1ccccn1`, `O=C(/C=C/c1ccccn1)c1cc(Br)ccc1O` is 2.3-fold lower in EC50: 20.8 µM for the first, 8.96 µM for the second.

`CCOC(=O)C(C(=O)OCC)C(C(=O)OCC)N1CCOCC1` (configuration not stated) and `CCOC(=O)c1c(C)oc2c1c(C(c1cccnc1)N1CCOCC1)c(O)c1ccccc12` (configuration not stated) are within 1.5-fold of each other in EC50: 14.2 µM for the first, 13.7 µM for the second.

Going from `O=C1NC(=O)N(Cc2ccco2)C(=O)/C1=C/c1ccc(-c2cccc([N+](=O)[O-])c2)o1` to `O=C1NC(=O)N(Cc2ccc(F)cc2)C(=O)/C1=C/c1cccs1`, the EC50 falls from 11.2 µM to 4.65 µM (2.4-fold).

`Cc1ccc(S(=O)(=O)ON2C(=O)c3ccccc3C2=O)c(C)c1` and `Cc1ccc(/C=C/C(=O)c2ccccc(=O)c2O)c(C)c1` are within 1.5-fold of each other in EC50: 14 µM for the first, 11.3 µM for the second.

`Cc1ccc(S(=O)(=O)c2ccc([N+](=O)[O-])cn2)cc1` and `O=C1C=CC(=O)N1c1ccc(Sc2ccc([N+](=O)[O-])cc2)cc1` are within 1.5-fold of each other in EC50: 12.9 µM for the first, 10.2 µM for the second.

First: COc1ccc2c(c1)c1nnc(SC)nc1n2C
Second: CSc1nnc2c3cc(F)ccc3n(C)c2n1
The EC50 of the first is 1.7-fold lower: 0.681 µM for the first, 1.19 µM for the second. The first is the more potent here.

`O=C(Nc1ccc(Cl)cc1Cl)c1cccc(N2C(=O)C=CC2=O)c1` and `Cc1ccc(NC(=O)c2cc(N3C(=O)C=CC3=O)ccc2Cl)cc1C` are within 1.5-fold of each other in EC50: 9.64 µM for the first, 7.49 µM for the second.

Going from `ClC(Cl)(c1nnnn1-c1ccccc1)c1nnnn1-c1ccccc1` to `CC1=NNC(=O)/C1=C\c1cn(-c2ccccc2)nc1-c1ccccc1`, the EC50 rises from 4.62 µM to 11.4 µM (2.5-fold).

`O=c1cc(CSc2ccc(Cl)cc2)nc(-c2ccccn2)[nH]1` and `O=C(Nc1nc(-c2ccccn2)cs1)c1cc2ccccc2o1` are within 1.5-fold of each other in EC50: 12.9 µM for the first, 11.7 µM for the second.

Compared with `COc1ccc2c(c1)S/C(=C\C(=O)c1ccncc1)N2C`, `O=C(/C=C/c1ccccn1)c1ccc(Br)cc1O` is 6.8-fold higher in EC50: 3.97 µM for the first, 26.8 µM for the second. The first is the more potent here.

`CCOc1ccc(N/N=C(/C#N)C(N)=O)cc1` and `Cc1ccc(N/N=C(\C#N)C(N)=S)c(C)c1` are within 1.5-fold of each other in EC50: 4.55 µM for the first, 5 µM for the second.

Going from `CC(Oc1ccc(Cl)cc1)C(=O)NNC(=S)NC(=O)c1ccco1` (configuration not stated) to `O=C1NC(=O)C(=Cc2ccc(-c3ccc(Cl)cc3)o2)C(=O)N1`, the EC50 falls from 11 µM to 6.81 µM (1.6-fold). The second is the more potent here.

`C[C@H]1C[C@@H](C)C(=O)[C@@H]([C@H](O)CC2CC(=O)NC(=O)C2)C1` and `C[C@@H]1C[C@@H]([C@H](O)CC2CC(=O)NC(=O)C2)C(=O)[C@@H](C)C1` are within 1.5-fold of each other in EC50: 0.57 µM for the first, 0.644 µM for the second.

`CCCCS(=O)(=O)/C=C\C=C/S(=O)(=O)CCCC` and `CCCCCCCCn1sccc1=O` are within 1.5-fold of each other in EC50: 12.5 µM for the first, 11.9 µM for the second.

`C#CCOCCOCCOCCNc1nc(N2CCN(C(=O)CCCCCCCCCCNC(=O)[C@@H](CCC(=O)O)n3cc(CCCCCN)nn3)CC2)nc(N2CCN(C(=O)CCCCCCCCCCNC(=O)[C@H](CCCCN)n3cc(C[C@@H](C)CC)nn3)CC2)n1` and `C#CCOCCOCCOCCNc1nc(N2CCN(C(=O)CCCCCCCCCCNC(=O)[C@H](CCCCN)n3cc(CCO)nn3)CC2)nc(N2CCN(C(=O)CCCCCCCCCCNC(=O)[C@H](CCCCN)n3cc(C[C@@H](C)CC)nn3)CC2)n1` are within 1.5-fold of each other in EC50: 11 µM for the first, 10.1 µM for the second.

Going from `CCN1/C(=C/C(C)=C/c2sc3ccccc3[n+]2CC)Sc2ccccc21` to `CCn1c(=O)c(C(=O)Nc2nc3ccccc3[nH]2)c(O)c2ccccc21`, the EC50 falls from 11.3 µM to 3.3 µM (3.4-fold).

`O=[N+]([O-])c1cc(Cl)c2cccnc2c1O` and `O=[N+]([O-])c1cc(S(=O)(=O)C(F)(F)F)ccc1Sc1nc2ccccc2s1` are within 1.5-fold of each other in EC50: 13 µM for the first, 14.4 µM for the second.

First: Cc1ccc(C(=O)O)cc1N=Cc1cc(Br)cc(Br)c1O
Second: CCOC(=O)/C(=C\c1cn(C)c2ccccc12)[N+](=O)[O-]
The EC50 of the first is 2.4-fold higher: 11.8 µM for the first, 4.95 µM for the second.

`O=C1C=CC(=O)N1c1ccc(N2CCCCC2)cc1` and `Cc1ccc(NC(=O)c2cc(N3C(=O)C=CC3=O)ccc2N2CCOCC2)cc1Cl` are within 1.5-fold of each other in EC50: 5.05 µM for the first, 4.02 µM for the second.

`CC(C)(C)c1ccc(NC(=O)COC(=O)c2ccc([N+](=O)[O-])s2)cc1` and `Cn1ncc2c(O/N=C(\N)c3ccc(C(C)(C)C)cc3)ncnc21` are within 1.5-fold of each other in EC50: 9.71 µM for the first, 13 µM for the second.

Going from `CCc1nc2ccccc2c(=O)n1NC(=O)c1c(O)c2ccccc2n(CC)c1=O` to `O=C1C=C(c2ccccc2)C(=O)N1Nc1ccccc1`, the EC50 falls from 7.44 µM to 3.91 µM (1.9-fold).

Going from `Nc1ccc(Br)c2c1C(=O)c1ccccc1C2=O` to `CC(C)(C)n1nc(-c2ccc(F)cc2)c2c(N)ncnc21`, the EC50 falls from 3.16 µM to 0.98 µM (3.2-fold).

First: C#CCOCCOCCOCCNc1nc(N2CCN(C(=O)CCCCCCCCCCNC(=O)[C@H](CCCCN)n3cc(C)nn3)CC2)nc(N2CCN(C(=O)CCCCCCCCCCNC(=O)[C@H](CCCN=C(N)N)n3cc(C[C@@H](C)CC)nn3)CC2)n1
Second: CNC(CC(=O)c1ccc([N+](=O)[O-])cc1)C(Cl)(Cl)Cl (configuration not stated)
The EC50 of the first is 1.6-fold higher: 10.7 µM for the first, 6.58 µM for the second.
